Patent US7326700B2, “Cyclohexenyl phenyl carboxamides tocolytic oxytocin receptor antagonists” (Wyeth, priority 2001, dated 2008)
Where a name gives a salt, the structure may show the parent alone.

Target: T1, human vasopressin V2 receptor subtype (Homo sapiens, UniProt P30518)
T1 construct: host or cells: CHO cells, stably transfected (pZeoSV vector)
Assay: Vasopressin binding in CHO cell membranes expressing human vasopressin V2 subtype receptors ([3H]arginine vasopressin radioligand binding)
Conditions: for IC50: value in parentheses; for inhibition at 0.1 µM / V2 % inhibition @ 100 nM: 100 nM
Text: Chinese Hamster Ovary (CHO) cells stably transfected with the human V2 subtype receptors were obtained from M. Thibonnier, Case Western Reserve University School of Medicine, Cleveland, Ohio.
CHO cells transfected with the human vasopressin V2 subtype receptors obtained from M. Thibonnier (pZeoSV vector) are allowed to grow to confluency (approx. >90%) in T-150 flasks under sterile conditions, in a cell culture medium consisting of F-12 Nutrient Mixture (HAM) with L-glutamine (Gibco Cat. #11765-054) containing 15 mM HEPES (Gibco Cat. #15630-080), 1% antibiotic/antimycotic (add 5 mL 100×, Gibco Cat. #15240-062 per 500 mL F-12), 250 μg/mL Zeocin (add 1.25 mL of 100 mg/mL Invitrogen R-250-01 per 500 mL F-12) and 10% Fetal Bovine Serum (Qualified, heat inactivated, Gibco Cat. #16140-063). The medium is removed by aspiration and the cells washed with 10 mL of Hank's Balanced Salt solution (Gibco Cat. #14175-095). The salt solution is removed by aspiration and the cells trypsinized with 5 mL of trypsin-EDTA (0.05% trypsin, 0.53 mM EDTA-4Na, Gibco Cat. #25300-070) for 1 min. The trypsin is removed by aspiration and the cells dislodged by tapping. Cell Culture medium (e.g. 30 mL for 1:30 split) is immediately added and mixed well to inactivate trypsin. 1 mL of detached cells is added to new culture flasks containing fresh Cell Culture medium (e.g. into 25 mL per T-150 flask), and mixed gently. The cells are incubated at 37° C. in 5% CO2. The medium is changed at 3 to 4 day interval (or as appropriate). The cells grow to confluency (approx. >75%-95%) within 7-8 days. All steps are done under sterile conditions.
The cells are washed twice gently with Hank's Balanced Salt solution (e.g. use 10 mL per T-150 flask). The excess solution is removed and the cells bathed for 15-30 min. in an enzyme-free Cell Dissociation Buffer (e.g. use 8 mL Hank's Based, Gibco Cat. #13150-016 per T-150 flask) until cells are loosened. The contents are transferred to centrifuge tubes (50 mL) kept in an ice bath. All subsequent steps are done at 4° C. The tubes are centrifuged at 300×g for 15 min (1380 rpm on SORVAL, Model RT6000D, using the rotor for 50 mL tubes). The supernatant is discarded and the cells suspended in homogeneizing buffer(10 mM Tris-HCl containing 0.25 M sucrose and 1 mM EDTA, pH 7.4) ensuring that the volume of the buffer is about ten times the volume of the cell pellet. The cells are pooled into a centrifuge tube (50 mL) and homogenized with Polytron at setting 6 for 10 sec. The homogenate is transferred into a Potter-Elvjehm homogeneizer and homogenized with 3 strokes. The homogenate is centrifuged at 1500×g for 60 min at 4° C. (3100 rpm using SORVAL, model RT6000D, using the rotor for 50 mL tubes). The pellet is discarded. The supernatant is centrifuged at 100,000×g for 60 min. at 4° C. (Beckman L8-80M ultracentrifuge; spin at 37,500 rpm with rotor type 70 Ti for 50 mL tubes; 38,000 rpm with type 80 Ti for 15 mL tubes; or 35,800 rpm with rotor type 45Ti). The supernantant is discarded and the pellet suspended in 3 to 4 mL of Tris buffer (50 mM TRIS-HCl, pH 7.4). The protein content is estimated by the Bradford or Lowry method. The volume of the membrane suspension is adjusted with the membrane buffer (50 mM Tris-HCl containing 0.1% BSA and 0.1 mM PMSF) to give 3.0 mg/mL (or as appropriate) of protein. The membranes are aliquoted and stored at −70° C.
In wells of a 96-well format microtiter plate, is added 90, 110 or 130 μL (to make up a final volume of 200 μL) of assay buffer containing 50 mM of Tris-HCl (pH 7.4), […], 1 mg % aprotinin, 1 mg % leupeptin, 2 mg % 1,10-phenanthroline, 10 mg % trypsin inhibitor, and 0.1 mM PMSF. The inhibitors are added on the day of the experiment. The components are mixed at room temperature, and then kept in ice bath following adjustment of the pH to 7.4. […]

T1 sequence (P30518 whole entry): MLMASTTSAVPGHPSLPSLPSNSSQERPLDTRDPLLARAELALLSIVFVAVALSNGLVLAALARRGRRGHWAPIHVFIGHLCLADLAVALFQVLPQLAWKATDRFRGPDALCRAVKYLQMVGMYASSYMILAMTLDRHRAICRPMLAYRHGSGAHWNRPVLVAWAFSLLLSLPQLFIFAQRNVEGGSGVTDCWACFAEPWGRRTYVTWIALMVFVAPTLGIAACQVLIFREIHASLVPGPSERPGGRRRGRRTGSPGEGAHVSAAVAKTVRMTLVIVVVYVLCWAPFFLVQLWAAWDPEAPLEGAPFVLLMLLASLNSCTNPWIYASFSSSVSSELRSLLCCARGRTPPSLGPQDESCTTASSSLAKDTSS

Compound | inhibition at 0.1 µM | V2 % inhibition @ 100 nM | other results
COc1cc(C2=CCCCC2)c(Cl)cc1C(=O)N1Cc2ccc(C(=O)N3CCC[C@H]3CN3CCCC3)n2Cc2ccccc21 [Example 1, 4-Chloro-5-cyclohex-1-en-1-yl-2-[(3-{[(2S)-2-(pyrrolidin-1-ylmethyl)pyrrolidin-1-yl]carbonyl}-5H-pyrrolo [2,1-c][1,4]benzodiazepin-10(11H)-yl)carbonyl]phenyl methyl ether] |  |  | IC50: > 3 µM
COc1cc(C2=CCCCC2)c(Cl)cc1C(=O)N1Cc2ccc(C(=O)N(C)CCCN(C)C)n2Cc2ccccc21 [Example 2, 10-(5-Chloro-4-cyclohex-1-en-1-yl-2-methoxybenzoyl)-N-[3-(dimethylamino)propyl]-N-methyl-10,11-dihydro-5H-pyrrolo[2,1-c][1,4]benzodiazepine-3-carboxamide] | 4% |  | 
COc1cc(C2=CCCCC2)c(Cl)cc1C(=O)N1Cc2ccc(C(=O)N(C)CCCN(C)C)n2Cc2ccccc21 [Example 3, 10-(5-Chloro-4-cyclohex-1-en-1-yl-2-methoxybenzoyl)-N-[3-(dimethylamino)propyl]-N-methyl-10,11-dihydro-5H-pyrrolo[2,1-c][1,4]benzodiazepine-3-carboxamide citric acid salt] |  |  | IC50: 5.84 µM
Cc1cc(C(=O)N2Cc3ccc(C(=O)N4CCN(C)CC4)n3Cc3ccccc32)ccc1C1=CCCCC1 [Example 4, [10-(4-Cyclohex-1-en-1-yl-3-methyl-benzoyl)-10,11-dihydro-5H-pyrrolo[2,1-c][1,4]benzodiazepin-3-yl]-(4-methyl-piperazin-1-yl)-methanone] | 11% |  | 
Cc1cc(C(=O)N2Cc3ccc(C(=O)N4CCN(CCCN(C)C)CC4)n3Cc3ccccc32)ccc1C1=CCCCC1 [Example 5, [10-(4-Cyclohex-1-en-1-yl-3-methyl-benzoyl)-10,11-dihydro-5H-pyrrolo[2,1-c][1,4]benzodiazepin-3-yl]-[4-(3-dimethylamino-propyl)-piperazin-1-yl]-methanone] | 19% |  | 
Cc1cc(C(=O)N2Cc3ccc(C(=O)N4CCN(C)CC4)n3Cc3ccccc32)ccc1C1=CCCc2ccccc21 [Example 6, {10-[4-(3,4-Dihydro-naphthalen-1-yl)-3-methyl-benzoyl]-10,11-dihydro-5H-benzo[e]pyrrolo[1,2-a][1,4]diazepin-3-yl}-(4-methyl-piperazin-1-yl)-methanone] | 17% |  | 
Cc1cc(C(=O)N2Cc3ccc(C(=O)N4CCN(CCCN(C)C)CC4)n3Cc3ccccc32)ccc1C1=CCCc2ccccc21 [Example 7, {10-[4-(3,4-Dihydro-naphthalen-1-yl)-3-methyl-benzoyl]-10,11-dihydro-5H-pyrrolo[2,1-c][1,4]benzodiazepin-3-yl}-[4-(3-dimethylamino-propyl)-piperazin-1-yl]-methanone] | 30% |  | 
CC1=C(c2ccc(C(=O)N3Cc4ccc(C(=O)N5CCN(C)CC5)n4Cc4ccccc43)cc2C)CCCC1O (stereo not drawn) [Example 10, [4-(3-Hydroxy-2-methyl-cyclohex-1-en-1-yl)-3-methyl-phenyl]-[3-(4-methyl-piperazine-1carbonyl)-10,11-dihydro-5H-pyrrolo[2,1-c][1,4]benzodiazepin-10-yl]-methanone] | -8% |  | 
CC1=C(c2ccc(C(=O)N3Cc4ccc(C(=O)N5CCN(C)CC5)n4Cc4ccccc43)cc2C)CCC[C@H]1O [Example 11, [4-((3R)-3-Hydroxy-2-methyl-cyclohex-1-en-1-yl)-3-methyl-phenyl]-[3-(4-methyl-piperazine-1-carbonyl)-10,11-dihydro-5H-pyrrolo [2,1-c][1,4]benzodiazepin-10-yl]-methanone] | 14% |  | 
Cc1cc(C(=O)N2Cc3ccc(C(=O)N4CCCN(C)CC4)n3Cc3ccccc32)ccc1C1=CCCCC1 [Example 13, {10-[4-(1-Cyclohex-1-en-1-yl)-3-methylbenzoyl]-10,11-dihydro-5H-pyrrolo[2,1-c][1,4]benzodiazepin-3-yl}(4-methyl-1,4-diazepan-1-yl)methanone] |  | 3% | 
Cc1cc(C(=O)N2Cc3ccc(C(=O)NCCCN(C)C)n3Cc3ccccc32)ccc1C1=CCCCC1 [Example 14, 10-[4-(1-Cyclohex-1-en-1-yl)-3-methylbenzoyl]-N-[3-(dimethylamino)propyl]-10,11-dihydro-5H-pyrrolo[2,1-c][1,4]benzodiazepine-3-carboxamide] |  | 5% | 
Cc1cc(C(=O)N2Cc3ccc(C(=O)N(C)CCN(C)C)n3Cc3ccccc32)ccc1C1=CCCCC1 [Example 15, 10-[4-(1-Cyclohex-1-en-1-yl)-3-methylbenzoyl]-N-[2-(dimethylamino)ethyl]-N-methyl-10,11-dihydro-5H-pyrrolo[2,1-c][1,4]benzodiazepine-3-carboxamide] |  | 5% | 
Cc1cc(C(=O)N2Cc3ccc(C(=O)N(C)CCCN(C)C)n3Cc3ccccc32)ccc1C1=CCCCC1 [Example 16, 10-[4-(1-Cyclohex-1-en-1-yl)-3-methylbenzoyl]-N-[3-(dimethylamino)propyl]-N-methyl-10,11-dihydro-5H-pyrrolo[2,1-c][1 ,4]benzodiazepine-3-carboxamide] |  | 10% | 
Cc1cc(C(=O)N2Cc3ccc(C(=O)N4CCC(N5CCCCC5)CC4)n3Cc3ccccc32)ccc1C1=CCCCC1 [Example 17, {10-[4-(1-Cyclohex-1-en-1-yl)-3-methylbenzoyl]-10,11-dihydro-5H-pyrrolo[2,1-c][1,4]benzodiazepin-3-yl}[4-(1-piperidinyl)-1-piperidinyl]methanone] |  | 2% | 
Cc1cc(C(=O)N2Cc3ccc(C(=O)NCCCn4ccnc4)n3Cc3ccccc32)ccc1C1=CCCCC1 [Example 18, 10-[4-(1-Cyclohex-1-en-1-yl)-3-methylbenzoyl]-N-[3-(1H-imidazol-1-yl)propyl]10,11-dihydro-5H-pyrrolo[2,1-c][1,4]benzodiazepine-3-carboxamide] |  | 20% | 
Cc1cc(C(=O)N2Cc3ccc(C(=O)N4CCC(N5CCCC5)CC4)n3Cc3ccccc32)ccc1C1=CCCCC1 [Example 19, {10-[4-(1-Cyclohex-1-en-1-yl)-3-methylbenzoyl]-10,11-dihydro-5H-pyrrolo[2,1c][1,4]benzodiazepin-3-yl}[4-(1-pyrrolidinyl)-1-piperidinyl]methanone] |  | 18% | 
Cc1cc(C(=O)N2Cc3ccc(C(=O)NCCN4CCCCC4)n3Cc3ccccc32)ccc1C1=CCCCC1 [Example 20, 10-[4-(1-Cyclohex-1-en-1-yl)-3-methylbenzoyl]-N-[2-(1-piperidinyl)ethyl]-10,11-dihydro-5H-pyrrolo[2,1-c][1,4]benzodiazepine-3-carboxamide] |  | 14% | 
Cc1cc(C(=O)N2Cc3ccc(C(=O)NCCC4CCCN4C)n3Cc3ccccc32)ccc1C1=CCCCC1 (stereo not drawn) [Example 21, 10-[4-(1-Cyclohex-1-en-1-yl)-3-methylbenzoyl]-N-[2-(1-methyl-2-pyrrolidinyl)ethyl]-10,11-dihydro-5H-pyrrolo[2,1-c][1,4]benzodiazepine-3-carboxamide] |  | 11% | 
